Measurements as given in patent publication US20140357841A1, “Method for stabilizing polypeptide into alpha helix” (Peking University Shenzhen Graduate School, priority 2013, published 2014).
Marks after values point to notes of the source that are not given here.

Experiments:
[1] = circular dichroism (CD) detection of alpha helix content in PBS; assay type: physicochemical; set-up: [θ]215 / [θ]207 / [θ]190: unit not given here; conditions: for [θ]190 / [θ]207 / [θ]215 / [θ]215/[θ]207: CD; for [θ]190 / [θ]207 / [θ]215 / [θ]215/[θ]207 / relative content of alpha helix: PBS pH = 7.4, 22° C., 10 mM; for relative content of alpha helix: [θ]215(x)/[θ]215(ASOB), ASOB is the standard; for alpha helix stabilization / content by CD (in words): PBS 10 mM
Method: The obtained compound 4 is dissolved into of PBS (PH=7.4, 10 mM) for obtaining a CD diagram.
fH=([θ]obs215-[θ]C)/([θ]∞215-[θ]C);
wherein T=22° C.; κ=4.0; Np=6 (for pentapeptide); ι=0.1 (cm); C is a molarity M of the samples of the two isomers.

[2] = CD comparison in PBS and 50% trifluoroethanol (TFE) solution; assay type: physicochemical; conditions: CD in PBS versus 50% TFE solution
Source text: FIG. 2 is a CD diagram of the Ac-cyclo(1,5)-monoS5AAAC-NH2 sulfoxide B in the PBS and a 50% trifluoroethanol (TFE) solution according to the Example 1 of the present invention.

Ac-(cyclo2,6)-R[KAAAD]-NH2 [control, reference compound]
[θ]190 [1]: 39352
[θ]207 [1]: −13684
[θ]215 [1]: −13537
[θ]215/[θ]207 [1]: 0.99
relative content of alpha helix [1]: 0.86**

Ac-cyclo(1,5)-monoS5AAAC-NH2 sulfoxide A [ASOA]
[θ]190 [1]: −14594
[θ]207 [1]: −4667
[θ]215 [1]: 672
[θ]215/[θ]207 [1]: −0.14
relative content of alpha helix [1]: −0.04
improvement of the effects of stabilizing the alpha helix compared to conventional amido bond stabilization ([1]; versus control of Table 3, identical intermediate sequences): 14%

Ac-cyclo(1,5)-monoS5AAAC-NH2 sulfoxide B [ASOB]
effect of TFE buffer solution on the alpha helix [2]: no improvements
[θ]190 [1]: 25987
[θ]207 [1]: −16054
[θ]215 [1]: −15666
[θ]215/[θ]207 [1]: 0.98
alpha helix stabilization / content by CD (in words) [1]: has stable alpha helixes
relative content of alpha helix [1]: 1.00

Ac-cyclo(1,5)-monoS5AGAC-NH2 sulfoxide B [GSOB]
[θ]190 [1]: 9121
[θ]207 [1]: −7777
[θ]215 [1]: −7920
[θ]215/[θ]207 [1]: 1.02
alpha helix stabilization / content by CD (in words) [1]: identically high contents of the alpha helixes
relative content of alpha helix [1]: 0.51

Ac-cyclo(1,5)-monoS5AIAC-NH2 sulfoxide B [ISOB]
[θ]190 [1]: 26306
[θ]207 [1]: −15556
[θ]215 [1]: −13558
[θ]215/[θ]207 [1]: 0.87
alpha helix stabilization / content by CD (in words) [1]: identically high contents of the alpha helixes
relative content of alpha helix [1]: 0.87

Ac-cyclo(1,5)-monoS6AAAC-NH2 sulfoxide B
alpha helix stabilization / content by CD (in words) [1]: has effects of stabilizing alpha helix
